molecular target: T1, human μ-opiate receptor (Homo sapiens, UniProt P35372); assay: Affinity for the human μ-opiate receptor ([3H]-naloxone displacement, SPA); conditions: Table 1, aldehydes; test substance 1 μmole/l; inhibition of specific [3H]-naloxone binding; CHO-K1 membranes; read-out: μ-Opioid receptor, % inhibition [1 μM]
T1 construct: purchased PerkinElmer Life Sciences, Zaventem, Belgium RB-HOM; host or cells: CHO-K1 cells (recombinant expression; membrane preparation)
Procedure, shortened: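 CHO-K1 membranes expressing the receptor, incubated 90 min at room temperature with 1 nmol/l [3H]-naloxone and WGA-SPA beads in 50 mmol/l Tris-HCl with 0.06% BSA. Non-specific binding defined with 100 μmol/l naloxone. Value is % inhibition of specific binding at 1 μmol/l test substance.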

T1 sequence (P35372 whole entry): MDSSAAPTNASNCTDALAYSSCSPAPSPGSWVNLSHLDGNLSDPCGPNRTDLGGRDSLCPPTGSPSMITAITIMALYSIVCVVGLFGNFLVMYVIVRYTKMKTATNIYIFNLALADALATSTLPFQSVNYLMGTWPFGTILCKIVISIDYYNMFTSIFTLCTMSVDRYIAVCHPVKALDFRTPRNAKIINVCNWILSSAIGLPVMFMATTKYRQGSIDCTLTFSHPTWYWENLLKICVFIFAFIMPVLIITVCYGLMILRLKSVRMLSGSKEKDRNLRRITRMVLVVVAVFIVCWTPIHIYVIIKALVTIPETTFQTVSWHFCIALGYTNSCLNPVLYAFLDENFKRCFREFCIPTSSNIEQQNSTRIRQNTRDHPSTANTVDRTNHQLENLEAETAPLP

Work on CN(C)C(c1cccs1)C1CCC(C=O)CC1 (centres unmarked) [Example 9d, 4-(dimethylaminothiophen-2-yl-methyl)-cyclohexane carbaldehyde] yielded an inhibition at 1 µM of 69%.

same assay, conditions: Table 2, Examples 11-161; test substance 1 μmole/l; inhibition of specific [3H]-naloxone binding; CHO-K1 membranes; read-out: μ-Opioid receptor, % inhibition [1 μM]

In order of rising inhibition at 1 µM:
1. CCCCN1C=NC(Cc2ccc(Cl)cc2)(C(=O)OC)C1C1CCC(C(c2ccc(Cl)cc2)N(C)C)CC1 (centres unmarked) [Example 32, 1-butyl-4-(4-chlorobenzyl)-5-{4-[(4-chlorophenyl)-dimethylaminomethyl]-cyclohexyl}-4,5-dihydro-1H-imidazole-4-carboxylic acid methyl ester]  74%
2. CCCN1C=NC(CSC)(C(=O)OC)C1C1CCC(C(c2cccc(F)c2)N(C)C)CC1 (centres unmarked) [Example 57, 5-{4-[dimethylamino-(3-fluorophenyl)-methyl]-cyclohexyl}-4-methylsulfanylmethyl-1-propyl-4,5-dihydro-1H-imidazole-4-carboxylic acid methyl ester]  86%
3. CCCCC1(C(=O)OC)N=CN(CCc2ccccc2)C1C1CCC(C(c2cccc(F)c2)N(C)C)CC1 (centres unmarked) [Example 39, 4-butyl-5-{4-[dimethylamino-(3-fluorophenyl)-methyl]-cyclohexyl}-1-phenethyl-4,5-dihydro-1H-imidazole-4-carboxylic acid methyl ester]  88%
4. CCCCN1C=NC(Cc2ccc(Cl)cc2)(C(=O)OC)C1CC1CCC(C(c2ccc(Cl)cc2)N(C)C)CC1 (centres unmarked) [Example 35, 1-butyl-4-(4-chlorobenzyl)-5-{4-[(4-chlorophenyl)-dimethylaminomethyl]-cyclohexylmethyl}-4,5-dihydro-1H-imidazole-4-carboxylic acid methyl ester]  92%
5. COC(=O)C1(CSC)N=CN(C2CCCCC2)C1CC1CCC(C(c2ccc(F)cc2)N(C)C)CC1 (centres unmarked) [Example 153, 1-cyclohexyl-5-{4-[dimethylamino-(4-fluorophenyl)-methyl]-cyclohexylmethyl}-4-methylsulfanylmethyl-4,5-dihydro-1H-imidazole-4-carboxylic acid methyl ester]  93%
6. COC(=O)CCC1(C(=O)OC)N=CN(Cc2ccccc2)C1C1CCC(C(c2cccc(F)c2)N(C)C)CC1 (centres unmarked) [Example 95, 1-benzyl-5-{4-[dimethylamino-(3-fluorophenyl)-methyl]-cyclohexyl}-4-(2-methoxycarbonylethyl)-4,5-dihydro-1H-imidazole-4-carboxylic acid methyl ester]  94%
7. COC(=O)CCC1(C(=O)OC)N=CN(Cc2ccccc2)C1CC1CCC(C(c2cccc(F)c2)N(C)C)CC1 (centres unmarked) [Example 85, 1-benzyl-5-{4-[dimethylamino-(3-fluorophenyl)-methyl]-cyclohexylmethyl}-4-(2-methoxycarbonylethyl)-4,5-dihydro-1H-imidazole-4-carboxylic acid methyl ester]  95%
8. CCCCN1C=NC(CSC)(C(=O)OC)C1CC1CCC(C(c2ccc(Cl)cc2)N(C)C)CC1 (centres unmarked) [Example 89, 1-butyl-5-{4-[(4-chlorophenyl)-dimethylaminomethyl]-cyclohexylmethyl}-4-methylsulfanylmethyl-4,5-dihydro-1H-imidazole-4-carboxylic acid methyl ester]  96%
9. CCCCC1(C(=O)OC)N=CN(CCC)C1CC1CCC(C(c2ccc(Cl)cc2)N(C)C)CC1 (centres unmarked) [Example 28, 4-butyl-5-{4-[(4-chlorophenyl)-dimethylaminomethyl]-cyclohexylmethyl}-1-propyl-4,5-dihydro-1H-imidazole-4-carboxylic acid methyl ester]  97%
10. COC(=O)C1(CSC)N=CN(Cc2ccccc2)C1CC1CCC(C(c2ccc(Cl)cc2)N(C)C)CC1 (centres unmarked) [Example 100, 1-benzyl-5-{4-[(4-chlorophenyl)-dimethylaminomethyl]-cyclohexylmethyl}-4-methylsulfanylmethyl-4,5-dihydro-1H-imidazole-4-carboxylic acid methyl ester]  97%
11. CCCCN1C=NC(CSCc2ccccc2)(C(=O)OC)C1CC1CCC(C(c2cccc(F)c2)N(C)C)CC1 (centres unmarked) [Example 75, 4-benzylsulfanylmethyl-1-butyl-5-{4-[dimethylamino-(3-fluorophenyl)-methyl]-cyclohexylmethyl}-4,5-dihydro-1H-imidazole-4-carboxylic acid methyl ester]  98%
12. CCCC1(C(=O)OC)N=CN(Cc2ccccc2)C1CC1CCC(C(c2ccc(F)cc2)N(C)C)CC1 (centres unmarked) [Example 141, 1-benzyl-5-{4-[dimethylamino-(4-fluorophenyl)-methyl]-cyclohexylmethyl}-4-propyl-4,5-dihydro-1H-imidazole-4-carboxylic acid methyl ester]  98%
13. CCCCN1C=NC(CCSC)(C(=O)OC)C1CC1CCC(C(c2cccc(F)c2)N(C)C)CC1 (centres unmarked) [Example 123, 1-butyl-5-{4-[dimethylamino-(3-fluorophenyl)-methyl]-cyclohexylmethyl}-4-(2-methylsulfanylethyl)-4,5-dihydro-1H-imidazole-4-carboxylic acid methyl ester]  98%
14. COC(=O)C1(CCSC)N=CN(C2CCCCC2)C1CC1CCC(C(c2cccc(F)c2)N(C)C)CC1 (centres unmarked) [Example 103, 1-cyclohexyl-5-{4-[dimethylamino-(3-fluorophenyl)-methyl]-cyclohexylmethyl}-4-(2-methylsulfanyl-ethyl)-4,5-dihydro-1H-imidazole-4-carboxylic acid methyl ester]  99%
15. COC(=O)C1(CCSC)N=CN(Cc2ccccc2)C1CC1CCC(C(c2cccc(F)c2)N(C)C)CC1 (centres unmarked) [Example 139, 1-benzyl-5-{4-[dimethylamino-(3-fluorophenyl)-methyl]-cyclohexylmethyl}-4-(2-methylsulfanyl-ethyl)-4,5-dihydro-1H-imidazole-4-carboxylic acid methyl ester]  100%

test system: not given; assay: not given; conditions: not given

For CN(C)C(c1cccc(F)c1)C1CCC(C=O)CC1 (centres unmarked), the melting point was 40 to 43 °C.

From US7728028B2, “Substituted imidazoline compounds” (Gruenenthal GmbH, priority 2005, dated 2010)
